From ChEMBL document CHEMBL5550138, “Histidine-Covalent Stapled Alpha-Helical Peptides Targeting hMcl-1” (J Med Chem, 2024)
Active and inactive are the calls of the source. No cut-off for these calls is given here. Positions of bridges follow the written chain, without caps; N, C: chain ends. Non-standard residues stand in square brackets, D forms with d. Residues, ends and D or L forms follow the SMILES beside them. *: point of attachment. Benzoyl(2-OMe,5-SO2F) = COc1ccc(S(=O)(=O)F)cc1C(=O)*; Ser(allyl) = C=CCOC[C@H](N)C(=O)O; S5 = C=CCCC[C@](C)(N)C(=O)O; Dap = NC[C@H](N)C(=O)O

How the values were obtained:
[1] = molecular target: T1, Induced myeloid leukemia cell differentiation protein Mcl-1 (Homo sapiens, UniProt Q07820); assay: Displacement of biotinylated BH3 peptide from N-terminal His6-tagged human Mcl-1 ligand binding domain (172 to 323 residues) expressed in Escherichia coli BL21(DE3) gold pLysS cells preincubated with protein for 2 hrs followed by incubation with BH3 peptide for 2 hrs by DELFIA assay
T1 sequence (Q07820 whole entry, the tested form may be a part): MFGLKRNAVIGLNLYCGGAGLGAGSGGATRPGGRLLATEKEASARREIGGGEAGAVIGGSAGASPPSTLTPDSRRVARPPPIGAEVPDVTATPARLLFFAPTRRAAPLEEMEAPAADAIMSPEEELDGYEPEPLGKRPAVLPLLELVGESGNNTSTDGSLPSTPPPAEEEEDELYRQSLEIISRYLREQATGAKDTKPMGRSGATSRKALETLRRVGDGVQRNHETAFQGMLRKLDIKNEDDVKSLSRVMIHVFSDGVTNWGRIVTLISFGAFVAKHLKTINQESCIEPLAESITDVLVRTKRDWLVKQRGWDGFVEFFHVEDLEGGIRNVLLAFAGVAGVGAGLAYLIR

Homo sapiens [2] = species: Homo sapiens; assay: (§1) Covalent binding affinity to N-terminal His6-tagged human Mcl-1 ligand binding domain (172 to 323 residues) His252Ala mutant expressed in Escherichia coli BL21(DE3) gold pLysS cells assessed as stable covalent adduct formation by measuring band shift at 100 uM incubated for 16 hrs by SDS PAGE analysis
Homo sapiens [3] = species: Homo sapiens; assay: as §1, with “Lys234Ala” for “His252Ala”
[4] = molecular target: T1, Induced myeloid leukemia cell differentiation protein Mcl-1; assay: Covalent binding affinity to N-terminal His6-tagged human Mcl-1 ligand binding domain (172 to 323 residues) expressed in Escherichia coli BL21(DE3) gold pLysS cells assessed as stable covalent adduct formation by measuring band shift at 100 uM incubated for 16 hrs by SDS PAGE analysis
[5] = molecular target: T2, Bcl-2-related protein A1 (Homo sapiens) (UniProt Q16548); assay: Covalent binding affinity to N-terminal His6-tagged human Bfl-1 (1 to 149 residues) assessed as band shift at 100 uM incubated for 16 hrs by SDS PAGE analysis
T2 sequence (whole entry): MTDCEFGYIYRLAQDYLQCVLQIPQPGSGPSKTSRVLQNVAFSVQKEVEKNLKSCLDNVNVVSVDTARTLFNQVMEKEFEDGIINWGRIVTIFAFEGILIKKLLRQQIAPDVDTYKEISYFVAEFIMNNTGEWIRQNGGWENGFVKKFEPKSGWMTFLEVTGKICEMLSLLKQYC

A549 = assay: Induction of cell lysis in NucLight Red-labeled human A549 cells assessed as cell bursting at 100 uM measured after 20 mins by IncuCyte S3 live cell analysis based fluorescence microscopy; type: toxicity; settings: a549, 20 min

Row | SMILES | IC50 [1] | Activity (Homo sapiens [2]) | Activity (Homo sapiens [3]) | Activity [4] | Activity [5] | Activity (A549)
1 | CC[C@H](C)[C@H](NC(=O)[C@H](CNC(=O)c1cc(S(=O)(=O)F)ccc1OC)NC(C)=O)C(=O)N[C@@H](C)C(=O)N[C@H]1COC/C=C\CCC[C@@](C)(C(=O)N[C@H](C(=O)NCC(=O)N[C@@H](CC(=O)O)C(=O)N[C@@H](CCCNC(=N)N)C(=O)N[C@@H](Cc2ccccc2)C(N)=O)[C@@H](C)CC)NC(=O)[C@H](CCCNC(=N)N)NC(=O)[C@H](CC(C)C)NC(=O)[C@H](CCC(N)=O)NC1=O (Ac-[Dap](Benzoyl(2-OMe,5-SO2F))IA[Ser(allyl)]QLR[S5]IGDRF-NH2; staple (Z) 4-8) | 0.0066 µM | Active | Active | Active | inactive | 
2 | CC[C@H](C)[C@H](NC(=O)[C@H](CCCNC(=N)N)NC(=O)[C@]1(C)CCC/C=C\CCC[C@](C)(NC(=O)[C@@H](NC(=O)[C@@H](CNC(=O)c2cc(S(=O)(=O)F)ccc2OC)NC(C)=O)[C@@H](C)CC)C(=O)N[C@H](CCC(=O)O)C(=O)N[C@@H](CCC(N)=O)C(=O)N[C@@H](CC(C)C)C(=O)N1)C(=O)NCC(=O)N[C@@H](CC(=O)O)C(=O)N[C@@H](CCCNC(=N)N)C(=O)N[C@@H](Cc1ccccc1)C(N)=O | 0.174 µM | Active | Active | Active | inactive | 
3 | CC[C@H](C)[C@H](NC(=O)[C@H](CCCNC(=N)N)NC(=O)[C@H](CCCNC(=N)N)NC(=O)[C@H](CC(C)C)NC(=O)[C@H](CCC(N)=O)NC(=O)[C@H](CCC(=O)O)NC(=O)[C@H](C)NC(=O)[C@@H](NC(=O)[C@H](CNC(=O)c1cc(S(=O)(=O)F)ccc1OC)NC(C)=O)[C@@H](C)CC)C(=O)NCC(=O)N[C@@H](CC(=O)O)C(=O)N[C@@H](CCCNC(=N)N)C(=O)N[C@@H](Cc1ccccc1)C(N)=O (Ac-[Dap](Benzoyl(2-OMe,5-SO2F))IAEQLRRIGDRF-NH2) | 0.018 µM |  |  |  |  | 
4 | CC[C@H](C)[C@H](NC(=O)[C@H](CNC(=O)c1cc(S(=O)(=O)F)ccc1OC)NC(C)=O)C(=O)N[C@@H](C)C(=O)N[C@@]1(C)CCC/C=C\CCC[C@@](C)(C(=O)N[C@H](C(=O)NCC(=O)N[C@@H](CC(=O)O)C(=O)N[C@@H](CCCNC(=N)N)C(=O)N[C@@H](Cc2ccccc2)C(N)=O)[C@@H](C)CC)NC(=O)[C@H](CCCNC(=N)N)NC(=O)[C@H](CC(C)C)NC(=O)[C@H](CCC(N)=O)NC1=O (Ac-[Dap](Benzoyl(2-OMe,5-SO2F))IA[S5]QLR[S5]IGDRF-NH2; staple (Z) 4-8) | 0.014 µM | Active | Active | Active | inactive | 
5 | CC[C@H](C)[C@H](NC(=O)[C@H](CCCNC(=N)N)NC(=O)[C@H](CCCNC(=N)N)NC(=O)[C@H](CC(C)C)NC(=O)[C@H](CCC(N)=O)NC(=O)[C@]1(C)CCC/C=C/CCC[C@](C)(NC(C)=O)C(=O)N[C@@H](CNC(=O)c2cc(S(=O)(=O)F)ccc2OC)C(=O)N[C@@H]([C@@H](C)CC)C(=O)N[C@@H](C)C(=O)N1)C(=O)NCC(=O)N[C@@H](CC(=O)O)C(=O)N[C@@H](CCCNC(=N)N)C(=O)N[C@@H](Cc1ccccc1)C(N)=O (Ac-[S5][Dap](Benzoyl(2-OMe,5-SO2F))IA[S5]QLRRIGDRF-NH2; staple (E) 1-5) | 0.024 µM | Active | Active | Active | inactive | Toxic
6 | CC[C@H](C)[C@H](NC(=O)[C@H](CC(=O)O)NC(=O)[C@H](CCCNC(=N)N)NC(=O)[C@H](CC(C)C)NC(=O)[C@H](CCC(N)=O)NC(=O)[C@]1(C)CCC/C=C/CCC[C@](C)(NC(C)=O)C(=O)N[C@@H](CNC(=O)c2cc(S(=O)(=O)F)ccc2OC)C(=O)N[C@@H]([C@@H](C)CC)C(=O)N[C@@H](C)C(=O)N1)C(=O)NCC(=O)N[C@@H](CC(=O)O)C(=O)N[C@@H](CCCNC(=N)N)C(=O)N[C@@H](Cc1ccccc1)C(N)=O (Ac-[S5][Dap](Benzoyl(2-OMe,5-SO2F))IA[S5]QLRDIGDRF-NH2; staple (E) 1-5) | 0.03 µM | Active | Active | Active | inactive | 
7 | CC[C@H](C)[C@H](NC(=O)[C@H](CNC(=O)c1cc(S(=O)(=O)F)ccc1OC)NC(C)=O)C(=O)N[C@@H](C)C(=O)N[C@@]1(C)CCC/C=C\CCC[C@@](C)(C(=O)N[C@H](C(=O)NCC(=O)N[C@@H](CC(=O)O)C(=O)N[C@@H](C)C(=O)N[C@@H](Cc2ccccc2)C(N)=O)[C@@H](C)CC)NC(=O)[C@H](CCCNC(=N)N)NC(=O)[C@H](CC(C)C)NC(=O)[C@H](CCC(N)=O)NC1=O (Ac-[Dap](Benzoyl(2-OMe,5-SO2F))IA[S5]QLR[S5]IGDAF-NH2; staple (Z) 4-8) | 0.012 µM | Active | Active | Active | inactive | 
8 | CC[C@H](C)[C@H](NC(=O)[C@H](C)NC(=O)[C@H](CCCNC(=N)N)NC(=O)[C@H](CC(C)C)NC(=O)[C@H](CCC(N)=O)NC(=O)[C@]1(C)CCC/C=C/CCC[C@](C)(NC(C)=O)C(=O)N[C@@H](CNC(=O)c2cc(S(=O)(=O)F)ccc2OC)C(=O)N[C@@H]([C@@H](C)CC)C(=O)N[C@@H](C)C(=O)N1)C(=O)NCC(=O)N[C@@H](CC(=O)O)C(=O)N[C@@H](C)C(=O)N[C@@H](Cc1ccccc1)C(N)=O (Ac-[S5][Dap](Benzoyl(2-OMe,5-SO2F))IA[S5]QLRAIGDAF-NH2; staple (E) 1-5) | 0.017 µM | Active | Active | Active | inactive | 
9 | CC[C@H](C)[C@H](NC(=O)[C@H](C)NC(=O)[C@H](CCCNC(=N)N)NC(=O)[C@H](CC(C)C)NC(=O)[C@H](CCC(N)=O)NC(=O)[C@]1(C)CCC/C=C/CCC[C@](C)(NC(C)=O)C(=O)N[C@@H](CNC(=O)c2cc(S(=O)(=O)F)ccc2OC)C(=O)N[C@@H]([C@@H](C)CC)C(=O)N[C@@H](C)C(=O)N1)C(=O)NCC(=O)N[C@@H](CC(=O)O)C(=O)N[C@@H](CCCNC(=N)N)C(=O)N[C@@H](Cc1ccccc1)C(N)=O (Ac-[S5][Dap](Benzoyl(2-OMe,5-SO2F))IA[S5]QLRAIGDRF-NH2; staple (E) 1-5) | 0.035 µM | Active | Active | Active | inactive | 
10 | CC[C@H](C)[C@H](NC(=O)[C@@H]1CCCCn2cc(nn2)CCC[C@H](NC(=O)[C@H](C)NC(=O)[C@@H](NC(=O)[C@H](CNC(=O)c2cc(S(=O)(=O)F)ccc2OC)NC(C)=O)[C@@H](C)CC)C(=O)N[C@@H](CCC(N)=O)C(=O)N[C@@H](CC(C)C)C(=O)N[C@@H](CCCNC(=N)N)C(=O)N1)C(=O)NCC(=O)N[C@@H](CC(=O)O)C(=O)N[C@@H](CCCNC(=N)N)C(=O)N[C@@H](Cc1ccccc1)C(N)=O | 0.021 µM | Active | Active | Active | inactive | 
